Values quoted from earlier work in PMC4043931 (Chembiochem : a European journal of chemical biology, 2014).

Columns and labels:
Details in all cases: listed for comparison; ref [7i], [10]
[1] = system: Klebsiella. pneumoniae (ATCC 13383)
[2] = system: Pseudomonas aeruginosa (ATCC 27853)
[3] = system: Methicillin-resistant Staphylococcus epidermidis (RP62A)
[4] = system: Vancomycin-resistant Enterococcus faecalis (ATCC 700802)
[5] = system: Methicillin-resistant Staphylococcus aureus (ATCC 33591)
[6] = system: human red blood cells (hRBC's)

## Pexiganan
[1]
  MIC K. pneumoniae: 8 µg/mL
[2]
  MIC P. aeruginosa: 16 µg/mL
[3]
  MIC S. epidermidis: 8 µg/mL
[4]
  MIC E. faecalis: 32 µg/mL
[5]
  MIC S. aureus: 16 µg/mL
[6]
  Hemolysis HC50: 120 µg/mL
